Assay results: patent publication US20090304692A1, “TRIAZINE COMPOUNDS AS PI3 KINASE AND MTOR INHIBITORS” (Wyeth, priority 2008, published 2009)
Where “and” joins values, the source holds several entries; their conditions need not be identical. Identical values can stand only once. Like-named read-outs stand apart in the source and are kept apart here.

Tests used:
Human mTOR (FLAG-TOR) = Human mTOR (FLAG-TOR) (Homo sapiens, UniProt P42345); assay: mTOR kinase assay (DELFIA format, purified enzyme); type: biochemical
Human mTOR (FLAG-TOR), sequence (P42345 1360-2549 limits assumed): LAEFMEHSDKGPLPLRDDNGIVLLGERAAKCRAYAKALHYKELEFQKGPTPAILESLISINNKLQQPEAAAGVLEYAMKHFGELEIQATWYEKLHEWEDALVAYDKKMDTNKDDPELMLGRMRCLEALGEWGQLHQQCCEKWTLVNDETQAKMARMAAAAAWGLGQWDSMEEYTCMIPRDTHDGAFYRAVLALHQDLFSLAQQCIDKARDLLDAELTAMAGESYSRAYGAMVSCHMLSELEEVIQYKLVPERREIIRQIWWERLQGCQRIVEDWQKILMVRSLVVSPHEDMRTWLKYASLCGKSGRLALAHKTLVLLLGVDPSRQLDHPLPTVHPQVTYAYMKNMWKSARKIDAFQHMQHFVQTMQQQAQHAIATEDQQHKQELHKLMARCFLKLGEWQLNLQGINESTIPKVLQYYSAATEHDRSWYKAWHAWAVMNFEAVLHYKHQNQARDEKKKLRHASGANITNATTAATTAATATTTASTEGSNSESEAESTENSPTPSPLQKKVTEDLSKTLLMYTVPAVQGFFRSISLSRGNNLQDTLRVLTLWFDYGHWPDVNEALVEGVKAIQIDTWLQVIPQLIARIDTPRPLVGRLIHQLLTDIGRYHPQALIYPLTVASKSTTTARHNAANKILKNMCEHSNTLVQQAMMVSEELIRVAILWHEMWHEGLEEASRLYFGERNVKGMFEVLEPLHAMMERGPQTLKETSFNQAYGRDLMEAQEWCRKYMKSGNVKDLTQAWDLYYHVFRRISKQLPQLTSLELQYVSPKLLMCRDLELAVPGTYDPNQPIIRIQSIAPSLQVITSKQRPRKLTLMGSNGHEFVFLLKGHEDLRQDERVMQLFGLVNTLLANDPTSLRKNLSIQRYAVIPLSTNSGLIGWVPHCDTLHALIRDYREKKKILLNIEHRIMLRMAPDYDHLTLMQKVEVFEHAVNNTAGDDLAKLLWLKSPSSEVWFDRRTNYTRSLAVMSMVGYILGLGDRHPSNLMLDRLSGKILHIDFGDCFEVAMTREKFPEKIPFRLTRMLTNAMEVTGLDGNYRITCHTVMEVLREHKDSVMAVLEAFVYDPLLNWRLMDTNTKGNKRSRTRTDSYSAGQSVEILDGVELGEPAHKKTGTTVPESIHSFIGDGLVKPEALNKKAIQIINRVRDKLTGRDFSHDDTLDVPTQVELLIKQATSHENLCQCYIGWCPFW

[1] = system: human breast MDA-MB-361 tumor cell line; assay: In vitro cell culture growth assay (MTS), MDA-MB-361; type: cell-based; conditions: Homo sapiens, three days after drug treatment, read-out: IC50 MDA-MB-361
[2] = system: human prostate PC3-mm2 tumor cell line; assay: In vitro cell culture growth assay (MTS), PC3-mm2; type: cell-based; conditions: Homo sapiens, PC3MM2, 72 h, three days after drug treatment, read-out: IC50 PC3-mm2
PI3K-α = PI3K-α (Homo sapiens, UniProt P42336); assay: PI3K-alpha fluorescence polarization assay; conditions: read-out: IC50 PI3Kα
PI3K-α, sequence (P42336 whole entry, species assumed): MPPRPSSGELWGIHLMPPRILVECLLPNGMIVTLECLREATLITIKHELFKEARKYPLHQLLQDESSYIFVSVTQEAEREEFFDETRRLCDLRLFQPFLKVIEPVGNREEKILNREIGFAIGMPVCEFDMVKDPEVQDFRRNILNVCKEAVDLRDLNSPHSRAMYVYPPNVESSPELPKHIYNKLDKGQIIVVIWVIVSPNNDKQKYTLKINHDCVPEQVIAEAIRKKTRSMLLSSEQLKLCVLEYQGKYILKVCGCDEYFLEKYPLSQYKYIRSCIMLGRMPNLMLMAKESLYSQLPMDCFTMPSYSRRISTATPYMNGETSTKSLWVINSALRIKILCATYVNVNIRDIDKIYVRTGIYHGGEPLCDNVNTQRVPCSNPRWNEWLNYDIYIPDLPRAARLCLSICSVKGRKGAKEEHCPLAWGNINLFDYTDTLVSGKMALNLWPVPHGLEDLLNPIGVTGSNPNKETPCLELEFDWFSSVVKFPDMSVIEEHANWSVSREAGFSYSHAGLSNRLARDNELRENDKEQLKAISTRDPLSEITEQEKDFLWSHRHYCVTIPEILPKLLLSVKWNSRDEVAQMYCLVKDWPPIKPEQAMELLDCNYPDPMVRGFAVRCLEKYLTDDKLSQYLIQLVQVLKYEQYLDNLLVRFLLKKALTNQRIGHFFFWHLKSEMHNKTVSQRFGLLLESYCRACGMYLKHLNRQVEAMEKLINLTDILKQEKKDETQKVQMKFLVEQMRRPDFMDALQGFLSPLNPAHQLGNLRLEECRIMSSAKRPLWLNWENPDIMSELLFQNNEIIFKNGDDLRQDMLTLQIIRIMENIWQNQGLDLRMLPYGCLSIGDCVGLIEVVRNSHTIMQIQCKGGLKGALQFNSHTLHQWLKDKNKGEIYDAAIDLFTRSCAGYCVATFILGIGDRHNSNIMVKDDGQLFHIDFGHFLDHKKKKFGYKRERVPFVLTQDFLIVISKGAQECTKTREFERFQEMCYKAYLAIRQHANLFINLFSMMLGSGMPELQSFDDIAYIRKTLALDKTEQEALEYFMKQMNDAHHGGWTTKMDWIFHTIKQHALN
PI3K-α, sequence (P27986 whole entry partner, species assumed): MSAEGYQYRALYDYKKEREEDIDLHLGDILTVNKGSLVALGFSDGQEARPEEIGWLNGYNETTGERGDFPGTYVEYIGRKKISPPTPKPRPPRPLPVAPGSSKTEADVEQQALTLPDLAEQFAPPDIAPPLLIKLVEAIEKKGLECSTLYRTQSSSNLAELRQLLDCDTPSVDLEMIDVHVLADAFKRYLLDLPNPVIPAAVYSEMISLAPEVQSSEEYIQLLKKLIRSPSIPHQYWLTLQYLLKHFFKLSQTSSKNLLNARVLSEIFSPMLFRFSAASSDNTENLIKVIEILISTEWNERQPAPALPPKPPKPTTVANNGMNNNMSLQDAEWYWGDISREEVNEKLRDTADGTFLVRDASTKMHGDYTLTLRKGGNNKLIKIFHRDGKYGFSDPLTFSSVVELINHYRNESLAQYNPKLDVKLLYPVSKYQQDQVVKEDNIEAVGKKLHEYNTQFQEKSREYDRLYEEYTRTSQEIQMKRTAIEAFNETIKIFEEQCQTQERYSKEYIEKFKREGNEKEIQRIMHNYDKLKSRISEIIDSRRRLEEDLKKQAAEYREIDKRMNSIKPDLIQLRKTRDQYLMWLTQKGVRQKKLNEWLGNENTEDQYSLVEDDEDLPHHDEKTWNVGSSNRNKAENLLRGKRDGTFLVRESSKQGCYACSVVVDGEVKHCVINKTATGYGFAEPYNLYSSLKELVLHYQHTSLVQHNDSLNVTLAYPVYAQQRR

PI3K-γ = PI3K-γ (Homo sapiens, UniProt P48736); assay: PI3K-gamma fluorescence polarization assay; conditions: read-out: IC50 PI3Kγ
PI3K-γ, sequence (P48736 whole entry, species assumed): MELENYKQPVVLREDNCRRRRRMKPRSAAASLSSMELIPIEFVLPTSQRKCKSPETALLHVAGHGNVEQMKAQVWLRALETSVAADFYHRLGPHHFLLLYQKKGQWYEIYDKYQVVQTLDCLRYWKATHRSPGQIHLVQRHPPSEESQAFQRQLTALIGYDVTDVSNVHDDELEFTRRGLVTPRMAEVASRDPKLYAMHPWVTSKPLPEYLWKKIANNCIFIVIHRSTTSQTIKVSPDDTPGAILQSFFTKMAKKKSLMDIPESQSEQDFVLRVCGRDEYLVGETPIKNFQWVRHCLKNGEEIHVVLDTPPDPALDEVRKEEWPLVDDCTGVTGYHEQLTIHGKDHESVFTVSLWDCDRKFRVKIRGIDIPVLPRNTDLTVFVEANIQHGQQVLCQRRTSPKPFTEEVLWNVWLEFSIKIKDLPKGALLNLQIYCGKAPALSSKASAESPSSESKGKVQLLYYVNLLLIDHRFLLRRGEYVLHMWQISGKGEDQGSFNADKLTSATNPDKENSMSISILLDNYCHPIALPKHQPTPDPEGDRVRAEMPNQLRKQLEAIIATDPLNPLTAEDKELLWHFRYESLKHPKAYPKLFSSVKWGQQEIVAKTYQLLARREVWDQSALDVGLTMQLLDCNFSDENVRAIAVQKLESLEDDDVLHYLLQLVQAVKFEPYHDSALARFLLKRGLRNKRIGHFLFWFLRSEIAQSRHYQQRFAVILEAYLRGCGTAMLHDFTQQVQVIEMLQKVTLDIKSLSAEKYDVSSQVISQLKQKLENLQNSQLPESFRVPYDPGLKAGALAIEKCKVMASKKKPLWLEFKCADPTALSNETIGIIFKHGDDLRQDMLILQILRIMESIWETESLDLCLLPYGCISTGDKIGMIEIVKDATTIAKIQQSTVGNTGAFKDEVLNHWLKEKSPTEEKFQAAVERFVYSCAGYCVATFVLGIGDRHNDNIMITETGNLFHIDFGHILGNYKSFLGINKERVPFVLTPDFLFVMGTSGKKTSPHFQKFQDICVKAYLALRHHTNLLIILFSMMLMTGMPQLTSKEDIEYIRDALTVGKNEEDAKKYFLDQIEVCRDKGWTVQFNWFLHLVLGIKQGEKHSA

[3] = MDA-MB-361, 72 h, MTS cell growth assay, MDA-MB-361 cells
[4] = MDA-MB-361, 72 h, MTS cell growth assay
[5] = MTS cell growth assay, PC3-mm2 cells
[6] = 72 h, MTS cell growth assay, MDA-MB-361 cells

SMILES | IC50 [1, 4] [nM] | IC50 [2, 5] [nM] | IC50 ([2]; MTS cell growth assay) [nM] | IC50 (PI3K-α) [nM] | IC50 (PI3K-γ) [nM] | IC50 (Human mTOR (FLAG-TOR); read-out: IC50 mTOR) | IC50 [1, 6] [nM] | other results
O=C(Nc1ccc(F)cc1)Nc1ccc(-c2nc(N3CCOCC3)nc(N3C4CCC3COC4)n2)cc1 [Example 37, 1-(4-fluorophenyl)-3-{4-[4-morpholin-4-yl-6-(3-oxa-8-azabicyclo[3.2.1]oct-8-yl)-1,3,5-triazin-2-yl]phenyl}urea] | 98 | 176 | 176 | 39 | 155 | – | – | IC50 (Human mTOR (FLAG-TOR); IC50 mTOR): 1.95 nM; IC50 [1, 3]: 98 nM; IC50 (PI3K-α; listed as 672): 39.5 nM; IC50 (PI3K-γ; listed as 672): 154 nM
CCOC(=O)N1CCC(Oc2nc(-c3ccc(NC(=O)Nc4ccncc4)cc3)nc(N3CCOCC3)n2)CC1 [Example 689, ethyl 4-[(4-morpholin-4-yl-6-{4-[(pyridin-4-ylcarbamoyl)amino]phenyl}-1,3,5-triazin-2-yl)oxy]piperidine-1-carboxylate] | – | 85 | – | 217 | 2480 | 39 nM | 53 | –
COC(=O)c1ccc(NC(=O)Nc2ccc(-c3nc(N4CCOCC4)nc(N4CCOC[C@@H]4C)n3)cc2)cc1 [Example 615, methyl 4-{[(4-{4-[(3S)-3-methylmorpholin-4-yl]-6-morpholin-4-yl-1,3,5-triazin-2-yl}phenyl)carbamoyl]amino}benzoate] | – | 123 | – | 26.5 | 116 | 1 nM | 88 | –
O=C(Nc1ccncc1)Nc1ccc(-c2nc(-c3cccs3)nc(N3CCOCC3)n2)cc1 [Example 557, 1-{4-[4-morpholin-4-yl-6-(2-thienyl)-1,3,5-triazin-2-yl]phenyl}-3-pyridin-4-ylurea] | – | 31 | – | 18 | 64 | 8.55 nM | 34 | –
CCN1CCN(C(=O)c2ccc(NC(=O)Nc3ccc(-c4nc(N5CCOC[C@@H]5C)nc(N5CCOC[C@@H]5C)n4)cc3)cc2)CC1 [Example 613, 1-(4-{4,6-bis[(3S)-3-methylmorpholin-4-yl]-1,3,5-triazin-2-yl}phenyl)-3-{4-[(4-ethylpiperazin-1-yl)carbonyl]phenyl}urea] | – | 21 | – | 3.8 | 53.5 | 1 nM | 6 | –
O=C(Nc1ccc(-c2nc(N3CCOCC3)nc(N3C4CCC3COC4)n2)cc1)Nc1ccc(-c2nc(N3CCOCC3)nc(N3C4CCC3COC4)n2)cc1 [Example 751, 1,3-bis{4-[4-morpholin-4-yl-6-(3-oxa-8-azabicyclo[3.2.1]oct-8-yl)-1,3,5-triazin-2-yl]phenyl}urea] | – | 238 | – | 143 | 404 | 3 nM | – | IC50 [1, 3]: 144 nM
CN(C)C1CCN(C(=O)c2ccc(NC(=O)Nc3ccc(-c4nc(N5CCOCC5)nc(N5C6CCC5COC6)n4)cc3)cc2)CC1 [Example 752, 1-(4-{[4-(dimethylamino)piperidin-1-yl]carbonyl}phenyl)-3-{4-[4-morpholin-4-yl-6-(3-oxa-8-azabicyclo[3.2.1]oct-8-yl)-1,3,5-triazin-2-yl]phenyl}urea] | – | 6 | – | 1.2 | 18.5 | 0.29 nM | – | IC50 [1, 3]: < 3 nM
O=C(Nc1ccncc1)Nc1ccc(-c2nc(N3CCOCC3)nc(N3C4COCC3C(OCc3ccccc3)C4)n2)cc1 (stereo not drawn) [Example 819, 1-(4-{4-[6-(benzyloxy)-3-oxa-8-azabicyclo[3.2.1]oct-8-yl]-6-morpholin-4-yl-1,3,5-triazin-2-yl}phenyl)-3-pyridin-4-ylurea] | – | – | – | 44 | 358 | 17 nM | – | IC50 ([1]; 72 h, MDA-MB-361 cells, MTS): 442 nM; IC50 ([2]; PC3-mm2 cells, MTS): 768 nM
CN1CCN(C(=O)c2ccc(NC(=O)Nc3ccc(-c4nc(NS(=O)(=O)c5ccccc5)nc(N5CCOCC5)n4)cc3)cc2)CC1 [Example 784, N-(4-{4-[({4-[(4-methylpiperazin-1-yl)carbonyl]phenyl}carbamoyl)amino]phenyl}-6-morpholin-4-yl-1,3,5-triazin-2-yl)benzenesulfonamide] | – | > 1000 | – | 40.5 | 174 | 88 nM | > 1000 | –
O=C(Nc1ccc(C(=O)N2CCC(N3CCOCC3)CC2)cc1)Nc1ccc(-c2nc(N3CCOCC3)nc(N3CCOCC3)n2)cc1 [Example 72, 1-(4-(4,6-dimorpholino-1,3,5-triazin-2-yl)phenyl)-3-(4-(4-morpholinopiperidine-1-carbonyl)phenyl)urea] | 1 | – | 13 | 2 | 19 | 0.85 nM | – | –
CN1CCN(C(=O)Nc2ccc(NC(=O)Nc3ccc(-c4nc(N5CCOCC5)nc(N5CCOCC5)n4)cc3)cc2)CC1 [Example 498, N-[4-({[4-(4,6-dimorpholin-4-yl-1,3,5-triazin-2-yl)phenyl]carbamoyl}amino)phenyl]-4-methylpiperazine-1-carboxamide] | – | 16.5 | – | < 1.7 | 2.5 | 2.35 nM | – | IC50 [1, 3]: 4 nM
CC(C)N1CCN(C(=O)c2ccc(NC(=O)Nc3ccc(-c4nc(N5CCOC[C@H]5C)nc(N5CCOC[C@@H]5C)n4)cc3)cc2)CC1 [Example 630, 1-(4-{[4-(1-methylethyl)piperazin-1-yl]carbonyl}phenyl)-3-(4-{4-[(3R)-3-methylmorpholin-4-yl]-6-[(3S)-3-methylmorpholin-4-yl]-1,3,5-triazin-2-yl}phenyl)urea] | – | 23 | – | 13.5 | 84.5 | 1 nM | 5 | –
O=C(Nc1ccc(C(=O)N2CCC(N3CCCC3)CC2)cc1)Nc1ccc(-c2nc(N3CCOCC3)nc(N3CCOCC3)n2)cc1 [Example 74, 1-(4-(4,6-dimorpholino-1,3,5-triazin-2-yl)phenyl)-3-(4-(4-(pyrrolidin-1-yl)piperidine-1-carbonyl)phenyl)urea] | < 3 | – | 8.33 | 0.4 | 8 | 1 nM and 0.63 nM | – | IC50 (PI3K-α; listed as 179): 1 nM; IC50 (PI3K-γ; listed as 179): 13 nM
Nc1ccc(NC(=O)Nc2ccc(-c3nc(N4CCOCC4)nc(N4CCOCC4)n3)cc2)cc1 [Example 351, 1-(4-aminophenyl)-3-[4-(4,6-dimorpholin-4-yl-1,3,5-triazin-2-yl)phenyl]urea] | 50 | 66 | 66 | 3 | 16 | 4.2 nM and 4.6 nM | – | IC50 [1, 3]: 50 nM; IC50 (PI3K-γ; listed as 497): 19 nM
CN(C)CCOc1ccc(NC(=O)Nc2ccc(-c3nc(N4CCOCC4)nc(N4C5CCC4COC5)n3)cc2)cc1 [Example 266, 1-{4-[2-(dimethylamino)ethoxy]phenyl}-3-{4-[4-morpholin-4-yl-6-(3-oxa-8-azabicyclo[3.2.1]oct-8-yl)-1,3,5-triazin-2-yl]phenyl}urea] | – | < 31 | – | 16 | 93 | 1.7 nM and 1.85 nM | < 31 | IC50 (PI3K-α; listed as 729): 14.5 nM; IC50 (PI3K-γ; listed as 729): 100 nM
O=C(Nc1ccc(C(=O)NCCN2CCCCC2)cc1)Nc1ccc(-c2nc(N3CCOCC3)nc(N3C4CCC3COC4)n2)cc1 [Example 759, 4-[({4-[4-morpholin-4-yl-6-(3-oxa-8-azabicyclo[3.2.1]oct-8-yl)-1,3,5-triazin-2-yl]phenyl}carbamoyl)amino]-N-(2-piperidin-1-ylethyl)benzamide] | – | 10 | – | 2 | 38 | 0.16 nM | 1 | –
CCc1nc(-c2ccc(NC(=O)Nc3ccc(N4CCC(N(C)C)CC4)cc3)cc2)nc(N2CCOCC2)n1 [Example 341, 1-{4-[4-(dimethylamino)piperidin-1-yl]phenyl}-3-[4-(4-ethyl-6-morpholin-4-yl-1,3,5-triazin-2-yl)phenyl]urea] | 150 | 237 | 237 | 10 | 48 | 12 nM and 15.5 nM | – | IC50 (PI3K-α; listed as 529): 10.5 nM; IC50 (PI3K-γ; listed as 529): 48.5 nM
O=C(Nc1ccc(CO)cc1)Nc1ccc(-c2nc(OC3CCOCC3)nc(N3CCOCC3)n2)cc1 [Example 62, 1-[4-(hydroxymethyl)phenyl]-3-{4-[4-morpholin-4-yl-6-(tetrahydro-2H-pyran-4-yloxy)-1,3,5-triazin-2-yl]phenyl}urea] | 27 | – | 34 | 2 | 24 | 0.68 nM | – | –
Cc1ccc(NC(=O)Nc2ccc(-c3nc(N4CCOCC4)nc(N4CCOCC4)n3)cc2)cc1 [Example 5, 1-[4-(4,6-dimorpholin-4-yl-1,3,5-triazin-2-yl)phenyl]-3-(4-methylphenyl)urea] | 45 | – | 43 | 17 | 438 | 6.3 nM | – | –
CCc1nc(-c2ccc(NC(=O)Nc3ccc(OCCN(C)C)cc3)cc2)nc(N2CCOCC2)n1 [Example 295, 1-{4-[2-(dimethylamino)ethoxy]phenyl}-3-[4-(4-ethyl-6-morpholin-4-yl-1,3,5-triazin-2-yl)phenyl]urea] | 133 | – | 189 | 19 | 81 | 29 nM | – | –
